What was measured:
[1] = Oxidation of DMSO to formaldehyde by peroxynitrite; conditions: pH 7.4, T=25°C, yield relative to [PN]0; PN alone 11.5%
Experimental: The final pH of the solutions was 7.4 and the temperature was maintained at 24° C. After 5 min of stirring, a 0.3 ml NaOH solution (7.8 M) was added to each tube for analyzing the amount of formed formaldehyde. This was immediately followed by supplying the tubes with 0.3 mL of 34.2 mM Purpald® (a color forming reagent for the determination of aldehydes; Aldrich Chemical Co.) in 480 mM HCl; and a second incubation with continuous shaking was performed for 10 min at 24° C. The thus obtained reaction product between formaldehyde and Purpald® was oxidized to a colored compound by the addition of 0.3 mL 470 mM KIO4 in 470 mM NaOH. The absorbance at 550 nm was measured with a spectrophotometer and the amount of formaldehyde was determined by using a standard curve obtained from formaldehyde solutions of known concentrations (a linear curve was obtained by drawing final O.D. at 550 nm versus initial formaldehyde concentrations).
(§1) These particular molecules were specifically chosen because they represent targets of hydroxyl radical, nitrogen dioxide, and of oxygen transfer reagents. In addition, their reaction products are easily identified and quantified by established methods.

[2] = Oxidation of deoxyribose to malonyldialdehyde by peroxynitrite; conditions: pH 7.4, T=25°C, yield relative to [PN]0; PN alone 1.7%
Experimental: 1 mL of 2.8% trichloroacetic acid and 1 mL of 1% thiobarbituric acid in 0.1 M NaOH adjusted to pH 3.5 were sequentially added to 1 mL samples and the absorbance spectra at 532 nm due to the absorbance maximum of the MDA-thiobarbiturate product were recorded as a function of time (0-22 hr) at 24° C.
as §1

[3] = Oxidation of DMSO by copper sulfate/ascorbate; conditions: CuSO4/ascorbate as initiator; 50 μM corrole, 18 hr
Experimental: Reaction was initiated by adding a mixture of CuSO4 and phenanthroline (final concentration of 8 μM for each), followed by sodium ascorbate (500 μM). […]
Additional experiments were carried out by using CuSO4/ascorbate as the initiator of reactive oxygen species (by the complex Fenton-type oxidation that produces hydroxyl radical via the involvement of superoxide anion radical and hydrogen peroxide), as to bridge between the results of the small molecules and those obtained by oxidation of LDL.

[4] = Decomposition of peroxynitrite, comparison with punicalagin; conditions: for Minimal concentration required for reducing the half lifetime of peroxynitrite by 50%: calculated from rate constants
Experimental: For initial assessment of possible superiority of the metallocorroles relative to natural antioxidants, we have determined the effect of excess (45-135 μM) punicalagin—the active polyphenolic hydrolysable tannin ingredient of pomegranate juice (Tzulker et al., 2007), on decomposition of peroxynitrite (40 μM).

LDL [5] = experiment: Interaction of LDL with corroles (absorbance before/after dialysis); type: binding, human; conditions: 10 μM corrole, 100 mg LDL protein/L (0.2 μM), dialyzed against PBS
Experimental: The solutions where extensively dialyzed against PBS, and the electronic spectrum was measured again. The difference in the absorbance can be used to calculate the number of corrole molecules bound to LDL [HDL].
Possible interactions between the corroles and LDL were investigated prior to the examinations of the effect of the corroles on LDL oxidation. This was performed by recording the absorbance spectrum of 10 μM aqueous corrole solutions before and after addition of 100 mg of LDL protein/L (corresponding to a molar concentration of 0.2 μM). […] This large number is quite reasonable since the LDL particle is very large and may not encompass specific binding sites, but rather the amphiphilic nature of the examined corroles renders them ideal for positioning in the phospholipid monolayer of the LDL, with the hydrophilic head groups sticking out toward the aqueous phase, as previously proposed for amphiphilic porphyrins (Camejo et al., 1998; Bonneau et al., 2004). In any case, no corrole is expected to be free in solution at the maximal corrole concentration used in the forthcoming experiments, namely, 5 μM per 100 mg of LDL protein/L (about 25 corrole molecules per LDL particle).

LDL [6] = experiment: Oxidation of LDL by copper sulfate; type: biochemical, human; conditions: for Increased damage (TBARS): corrole 0.5 μM
Experimental: (§2) Oxidation was initiated by addition of a freshly prepared CuSO4 solution (5 μM) and incubation at 37° C. under air in a shaking water bath was continued for 2 h (LDL) or 5 h (HDL). Lipoprotein oxidation was determined by measuring the amount of TBARS (Aviram et al. 2001).
(§3) Conjugated dienes formation was continuously monitored for 165 min while TBARS and lipid peroxides (Aviram et al. 2001) were measured after 15, 30, 45, 60, 75, 90, 120 and 165 minutes.
The more commonly used copper-induced LDL oxidation protocol was also applied. […] This may be appreciated from FIGS. 3A-3C, which show the time course of stepwise formation of conjugated dienes, hydroperoxides, and aldehydes (2.5 μM of metal corrole). […] The total amount of hydroperoxides rapidly reached a maximum at 45 min (due to its subsequent transformation to the final aldehyde products) and the total concentration of aldehydes was increased by a factor of 3 relative to the control experiment. […] Similar results were obtained for HDL oxidation.
The dependence of LDL oxidation on the corrole concentration was examined by analyses performed 2 hours after oxidation initiation by the copper ion (FIG. 4A).

HDL = experiment: Oxidation of HDL by copper sulfate; type: biochemical, human; conditions: for Effect on conjugated dienes formation in HDL: 2.5 μM corrole, 5 μM CuSO4
Experimental: as §2, §3
The results for the copper-induced oxidation of HDL were very similar to the results obtained for LDL. […] It should be mentioned that the damage measured for HDL is lower than that measured for LDL, due to the lower lipid content of HDL.

J-774 macrophages = experiment: Corrole-mediated cholesterol efflux from J-774 macrophages; type: cell-based, Murine; conditions: lipoprotein-free medium, 10, 25 or 50 μM, 4 hour, dose-dependent
Experimental: Murine J-774 cells (1×10^6/mL) were plated in 24-well plates for 24 hours, then washed and incubated for 1 hour in serum-free DMEM that contained ^3H-cholesterol (2 μCi/mL) and BSA (0.2%). […] After a 4-hour incubation at 37° C. to permit efflux of ^3H-cholesterol from the cells into the medium, 500 μL of the medium was collected. The cells were washed with PBS, 1 mL of 0.1 N NaOH was added to the cells and 500 μL was collected the next day. Medium and cellular ^3H-cholesterol were determined by liquid scintillation counting (LSC). […] Corrole-mediated cholesterol efflux was calculated after subtraction of the non-specific efflux obtained in cells incubated in the absence of corroles.
A still further indication for a favorable alteration of cellular cholesterol transport by metallocorroles was obtained by studying cholesterol efflux from J-774 macrophages in a lipoprotein-free medium. The iron complex (but not the manganese and gallium complexes) of corrole 1 increased the cholesterol efflux by up to 20% in a dose-dependent fashion.

[7] = tested on: Apolipoprotein E deficient mice (E^0 mice); experiment: Serum total cholesterol in E^0 mice; type: in vivo; conditions: drinking water 0.04 mM (0.2 mg per mouse per day), 10 weeks
From the text: a) For atherosclerosis evaluation: At an age of about 10 weeks, 24 E^0 mice were randomly divided into 4 groups of 6 mice each.
The sacrificed mice were also examined with regard to other factors relevant to the development of atherosclerosis.

| Compound | Yield of formaldehyde from DMSO [1] [%] | Yield of malonyldialdehyde from deoxyribose [2] [%] | Inhibition of the oxidation of DMSO to malonaldehyde [3] | Times more effective than punicalagin in peroxynitrite decomposition [4] [times] | Minimal concentration required for reducing the half lifetime of peroxynitrite by 50% [4] [mol %] | Decrease of absorbance after dialysis (LDL [5]) [%] | Increased damage (TBARS) (LDL [6]; 2 hours after CuSO4) | Effect on conjugated dienes formation in HDL (HDL) | Increase of cholesterol efflux from J-774 macrophages (J-774 macrophages) | Total serum cholesterol lower than in the control group [7] [%] | other results |
| --- | --- | --- | --- | --- | --- | --- | --- | --- | --- | --- | --- |
| O=S(=O)(O)c1cc2[n]3c1C(c1c(F)c(F)c(F)c(F)c1F)=C1C=CC4=[N+]1[Fe-]31[n]3c(cc(S(=O)(=O)O)c3-2)C(c2c(F)c(F)c(F)c(F)c2F)=c2ccc([n]21)=C4c1c(F)c(F)c(F)c(F)c1F (stereo not shown) [1-Fe, 5,10,15-tris(pentafluorophenyl)-2,17-bis(sulfonic acid)-corrolato iron(III)] | 0 | 0 | completely | 5000 | 0.05 | 10 | minor increase in TBARS | completely eliminated their formation | increases | 40 | Aldehydes formation after 24 hours (LDL [6]; 2.5 μM corrole, 5 μM CuSO4): no aldehydes were formed; Damage by all three criteria (conjugated dienes, hydroperoxides, aldehydes) (LDL [6]; 2.5 μM corrole, 5 μM CuSO4): practically no damage; Fold by which the manganese porphyrin concentration for 100% inhibition exceeds the 1-Fe concentration for full inhibition (LDL [6]; 100 μM vs 2.5 μM): 40 fold; Concentration giving full inhibition of LDL oxidation (LDL [6]; copper-induced LDL oxidation): 2.5 µM; Effect on TBARS formation (LDL [6]; corrole 2.5 μM and higher, 2 hours after CuSO4): complete inhibition; Effect on TBARS formation in HDL (HDL; corrole 2.5 μM and higher, 5 hr after CuSO4): protective effect; Increase of cholesterol efflux from J-774 macrophages (J-774 macrophages; listed as iron complex): up to 20% |
| O=S(=O)(O)c1cc2[n]3c1C(c1c(F)c(F)c(F)c(F)c1F)=C1C=CC4=[N+]1[Mn-]31[n]3c(cc(S(=O)(=O)O)c3-2)C(c2c(F)c(F)c(F)c(F)c2F)=c2ccc([n]21)=C4c1c(F)c(F)c(F)c(F)c1F (stereo not shown) [1-Mn, 5,10,15-tris(pentafluorophenyl)-2,17-bis(sulfonic acid)-corrolato manganese(III)] | 0 | 0 | 65% | 100 | 2.5 | 20 | about 150% | shortened the delay time | not | 26 | Factor of increase of total concentration of aldehydes relative to control (LDL [6]; 2.5 μM corrole, 5 μM CuSO4): 3; Time at which total hydroperoxides reached a maximum (LDL [6]; 2.5 μM corrole, 5 μM CuSO4): 45 min; Delay in formation of conjugated dienes (LDL [6]; 2.5 μM corrole, 5 μM CuSO4, control 30 minutes): 15 min; Increase of TBARS formation in HDL (HDL; all concentrations measured, 5 hr after CuSO4): about 2 folds |

— patent publication US8791099B2, “Transition metal complexes of corroles for preventing cardiovascular diseases or disorders” (Technion Research and Development Foundation Ltd., priority 2007, dated 2014)
